Reference: patent publication US9365830B2, “Agents and methods for inhibiting human pluripotent stem cell growth” (VIACYTE, INC., priority 2010, dated 2016)

Test system: OCT4-positive cells in Stage 1 differentiations of hES cells
Test: Plating assay for depletion of OCT4-positive cells in Stage 1 suspension aggregates, OCT4 immunostaining
Format: cell-based, human
Details: treated day 1 to 2 of Stage 1 at EC50 concentration; plated 24 hours in hESC medium; vs untreated or DMSO
Procedure: Human ES cell suspension aggregates were formed in rotational culture as described previously and differentiated through Stage 1 (definitive endoderm). About 20-30 aggregates were then plated per well in 4-well tissue culture dishes coated with MATRIGEL· diluted 1:200, and cultured for 24 hours in hESC medium (DMEM/F12, 10% XF-KSR, 10 ng/mL Activin A and 10 ng/mL Heregulin). This approach was intended to increase the contrast in OCT4 expression between undifferentiated hESCs and cells committed to differentiation. […] Stated in another way, mixed population cell cultures in hESC medium would potentially support expansion/proliferation of residual undifferentiated (hESCs), thereby show increased OCT4 gene expression, as compared to cells committed to differentiation, which would have decreased of OCT4 gene expression. Plated aggregates were immunostained for OCT4 protein and counterstained with DAPI, a nuclear stain (FIG. 12). The cell aggregates that were plated had flattened and spread out within a 24-hour period; while the centers of the aggregates were still domed. […] Brightly staining OCT4-positive cells were easily identified and distinguishable from the majority of OCT4 negative cells. OCT4-positive cells were generally found in clusters and most often within the domed area of a plated aggregate. […] Smaller aggregates residing in a larger aggregate may occur as a result of the initial stages of rotational culture, or the aggregation process, during which small clusters (primary aggregates) form initially. Aggregation of two or more primary aggregates likely leads to the formation of larger secondary aggregates, which can be 100-150 μm in diameter. Thus, it is possible that any single clusters of OCT4-positive cells exist at the center of a primary aggregate and resist differentiation. Such clusters would remain substantially undifferentiated and stain OCT4-positive. One hypothesis is that primary aggregates are specified to differentiation relative to their positioning in primary and secondary aggregates. For example, FIGS. 12A through 12E show a representative series of images, from small (primary) (e.g. FIGS. 12A and 12B) and larger (secondary) (e.g. FIGS. 12C-12E) plated aggregates containing OCT4-positive clusters (dark circles).
Depletion of OCT4-positive cells during Stage 1 differentiation was examined using the plating assay described above. Stage 1 differentiations of hES cells were treated from day 1 to 2 with the candidate compounds as described in Example 2 (chelerythrine chloride, caffeic acid and Ivermectin), at their EC50 concentrations for hES cells. Plated untreated and DMSO-treated aggregates were indistinguishable, and both contained discrete clusters of OCT4-positive cells. See FIG. 13A top and bottom panels for a DMSO treated example. The intensity of OCT4-positive staining in differentiating aggregate cell cultures treated with DMSO (control) was equivalent to undifferentiated hES cells.
Additional experiments were performed using higher concentrations of compounds and extended effects of the compounds in cell culture plated aggregates in hESC medium for 24 or 72 hours before staining (FIGS. 15 and 16). […] Another group of Stage 1 differentiating cultures were processed in parallel, but treated with 10 μm chelerythrine chloride.

22, 23-dihydroavermectin B1a+22,23-dihydroavermectin B1b [Ivermectin]
intensity for OCT4 staining: significantly decreased
